According to patent US20080021026A1, “BENZOTHIOPHENE INHIBITORS OF RHO KINASE” (priority 2006, published 2008):

Assays:
[1] = biological target: T1, recombinant N-terminal GST-tagged human Rho kinase 1 (ROCK1, amino acids 1-535) (Homo sapiens, UniProt Q13464); experiment: In vitro Rho kinase assay (luciferase-based ATP consumption), ROCK1; type: biochemical; details: recombinant GST-tagged human ROCK1, luciferase-based ATP consumption; read-out: ROCK1 IC50
T1 construct: ROCK1, amino acids 1-535; purchased Invitrogen Inc. PV-3691
T1 sequence (Q13464 1-535): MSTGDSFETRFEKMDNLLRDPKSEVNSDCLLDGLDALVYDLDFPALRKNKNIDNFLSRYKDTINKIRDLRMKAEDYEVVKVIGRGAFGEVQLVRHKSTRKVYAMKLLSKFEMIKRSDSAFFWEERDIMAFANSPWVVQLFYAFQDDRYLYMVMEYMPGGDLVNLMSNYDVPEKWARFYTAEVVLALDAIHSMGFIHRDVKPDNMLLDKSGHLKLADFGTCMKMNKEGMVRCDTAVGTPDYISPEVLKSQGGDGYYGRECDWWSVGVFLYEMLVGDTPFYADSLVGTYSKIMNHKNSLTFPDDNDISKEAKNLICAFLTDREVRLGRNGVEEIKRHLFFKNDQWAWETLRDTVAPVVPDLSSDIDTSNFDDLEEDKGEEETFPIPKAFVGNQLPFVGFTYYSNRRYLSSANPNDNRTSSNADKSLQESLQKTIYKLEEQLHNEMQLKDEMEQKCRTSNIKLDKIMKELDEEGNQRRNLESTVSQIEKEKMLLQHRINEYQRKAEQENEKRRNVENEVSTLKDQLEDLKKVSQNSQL
Experimental: In Vitro Rho Kinase Assay
Rho kinase biochemical assays described below depend on firefly luciferase-based, indirect measurement of total ATP consumption by the kinase following incubation with substrate and ATP. 25 μl of Rho kinase assay buffer (20 mM Tris-HCL [pH 7.5], 1 mM MgCl2, 0.4 mM CaCl2, 0.15 mM EGTA, 0.1 mg/ml bovine serum albumin) containing 0.82 μg/ml of recombinant N-terminal GST-tagged human Rho kinase 1 (ROCK1, amino acids 1-535, Invitrogen Inc., cat. #PV-3691) or recombinant N-terminal GST-tagged human Rho kinase 2 (ROCK2, amino acids 1-552, Invitrogen Inc., cat #PV3759), 100 μg/ml S6 peptide substrate (related to amino acids 218-249 of the human 40S ribosomal protein S6, and suitable for ROCK1 or ROCK2, e.g. Upstate/Millipore Inc., cat #12-420), and 3 µM ATP are dispensed to wells of a 384 multi-well opaque plate. The plate is centrifuged for 30 seconds at approximately 200×g. 240 nl of test compound in DMSO is dispensed to each well by passive pin transfer. The lag phase of this in vitro kinase reaction permits addition of compounds soon after the reaction initiates. The reaction is allowed to incubate at 30° C. for 2 hours. The assay plates are sealed and maintained in a humidified environment. After 2 hours, 25 μl of easylite protein kinase assay reagent (Perkin-Elmer, Inc.) is dispensed. After an additional 10 minute incubation at room temperature (about 22° C.), luminescence activity is measured on a Molecular Devices Analyst multi-mode plate reader or other suitable plate reader. Kinase inhibition results in less ATP consumption, and therefore increased luminescence signal. Negative control activity is measured with DMSO lacking any test compound. The positive control is 2-methyl-1-(4-methylisoquinolin-5-ylsulfonyl)perhydro-1,4-diazepine hydrochloride (aka H-1152P, HCl salt). Efficacy is measured as a percentage of positive control activity. […] The designation NT means the cited example was not tested.

[2] = biological target: T2, recombinant N-terminal GST-tagged human Rho kinase 2 (ROCK2, amino acids 1-552) (Homo sapiens, UniProt O75116); experiment: In vitro Rho kinase assay (luciferase-based ATP consumption), ROCK2; type: biochemical; details: recombinant GST-tagged human ROCK2, luciferase-based ATP consumption; read-out: ROCK2 IC50
T2 construct: ROCK2, amino acids 1-552; purchased Invitrogen Inc. PV3759
T2 sequence (O75116 1-552): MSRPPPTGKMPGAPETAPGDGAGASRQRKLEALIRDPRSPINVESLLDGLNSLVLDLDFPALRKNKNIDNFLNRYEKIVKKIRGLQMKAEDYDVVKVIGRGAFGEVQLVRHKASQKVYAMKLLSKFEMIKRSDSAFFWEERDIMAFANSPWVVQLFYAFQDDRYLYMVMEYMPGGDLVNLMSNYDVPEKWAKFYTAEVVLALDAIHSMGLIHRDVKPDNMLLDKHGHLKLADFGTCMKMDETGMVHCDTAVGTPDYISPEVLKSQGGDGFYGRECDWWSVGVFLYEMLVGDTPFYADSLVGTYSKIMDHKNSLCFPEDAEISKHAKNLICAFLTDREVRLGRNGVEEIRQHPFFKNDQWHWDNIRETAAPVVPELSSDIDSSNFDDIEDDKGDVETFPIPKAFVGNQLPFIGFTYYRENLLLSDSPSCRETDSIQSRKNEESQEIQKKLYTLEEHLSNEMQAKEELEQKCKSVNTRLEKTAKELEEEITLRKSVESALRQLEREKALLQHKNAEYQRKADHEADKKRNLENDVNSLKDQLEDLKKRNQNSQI
Outline: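 Luciferase-based luminescence of leftover ATP after 2 h at 30 °C, where inhibition raises signal, reports activity of GST-tagged ROCK2 (aa 1-552) at 0.82 μg/ml. Conditions: S6 peptide 100 μg/ml, […], pH 7.5 Tris buffer. Results given as percent of H-1152P control activity.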

## Cc1c(-c2ccnc(N)n2)sc2cnccc12 [Example 18, 4-(3-Methylthieno[2,3-c]pyridin-2-yl)pyrimidin-2-amine]
[1]
  IC50: < 5 µM
[2]
  IC50: < 5 µM

## Cc1c(-c2ccnc(N)n2)sc2ccc(C(=O)O)cc12 [Example 19, 2-(2-Aminopyrimidin-4-yl)-3-methylbenzo[b]thiophene-5-carboxylic acid]
[1]
  IC50: < 5 µM
[2]
  IC50: > 5 µM

## CC(=O)Nc1cccc(NC(=O)c2ccc3sc(-c4ccnc(N)n4)c(C)c3c2)c1 [Example 20, N-(3-Acetamidophenyl)-2-(2-aminopyrimidin-4-yl)-3-methylbenzo[b]thiophene-5-carboxamide]
[1]
  IC50: < 5 µM
[2]
  IC50: < 5 µM

## Cc1c(-c2ccnc(N)n2)sc2ccc(C(=O)Nc3ccc(OCCN4CCOCC4)cc3)cc12 [Example 21, 2-(2-Aminopyrimidin-4-yl)-3-methyl-N-(4-(2-morpholinoethoxy)phenyl)benzo[b]thiophene-5-carboxamide]
[1]
  IC50: < 5 µM
[2]
  IC50: < 5 µM

## Cc1c(-c2ccnc(N)n2)sc2ccc(C(=O)N3CCC(NC(=O)OC(C)(C)C)C3)cc12 (stereo not drawn) [Example 22, tert-Butyl 1-(2-(2-aminopyrimidin-4-yl)-3-methylbenzo[b]thiophene-5-carbonyl)pyrrolidin-3-ylcarbamate]
[1]
  IC50: > 5 µM
[2]
  IC50: > 5 µM

## Cc1c(-c2ccnc(N)n2)sc2ccc(C(=O)N3CCC(N)C3)cc12 (stereo not drawn) [Example 23, (2-(2-Aminopyrimidin-4-yl)-3-methylbenzo[b]thiophen-5-yl)(3-aminopyrrolidin-1-yl)methanone]
[1]
  IC50: < 5 µM
[2]
  IC50: < 5 µM

## Cc1c(-c2ccnc(N)n2)sc2ccc(Cc3ccccc3)cc12 [Example 24, 4-(5-Benzyl-3-methylbenzo[b]thiophen-2-yl)pyrimidin-2-amine]
[1]
  IC50: < 5 µM
[2]
  IC50: < 5 µM

## COc1ccc(Cc2ccc3sc(-c4ccnc(N)n4)c(C)c3c2)cc1 [Example 25, 4-(5-(4-Methoxybenzyl)-3-methylbenzo[b]thiophen-2-yl)pyrimidin-2-amine]
[1]
  IC50: > 5 µM
[2]
  IC50: > 5 µM

## CC(=O)Oc1cccc(Cc2ccc3sc(-c4ccnc(N)n4)c(C)c3c2)c1 [Example 28, 3-((2-(2-Aminopyrimidin-4-yl)-3-methylbenzo[b]thiophen-5-yl)methyl)phenyl acetate]
[1]
  IC50: < 5 µM
[2]
  IC50: < 5 µM

## Cc1c(-c2ccnc(N)n2)sc2ccc(Cc3cccc(OCCN4CCOCC4)c3)cc12 [Example 29, 4-(3-Methyl-5-(3-(2-morpholinoethoxy)benzyl)benzo[b]thiophen-2-yl)pyrimidin-2-amine]
[1]
  IC50: < 5 µM
[2]
  IC50: < 5 µM

## Cc1c(-c2ccnc(N)n2)sc2ccc(Cc3cccc(OCCN(C)C)c3)cc12 [Example 30, 4-(5-(3-(2-(Dimethylamino)ethoxy)benzyl)-3-methylbenzo[b]thiophen-2-yl)pyrimidin-2-amine]
[1]
  IC50: < 5 µM
[2]
  IC50: < 5 µM

## Cc1c(-c2ccnc(N)n2)sc2ccc(Cc3cccc(OCCCN)c3)cc12 [Example 31, 4-(5-(3-(3-Aminopropoxy)benzyl)-3-methylbenzo[b]thiophen-2-yl)pyrimidin-2-amine]
[1]
  IC50: < 5 µM
[2]
  IC50: < 5 µM

## COc1cccc(C(N)c2ccc3sc(-c4ccnc(N)n4)c(C)c3c2)c1 (stereo not drawn) [Example 32, 4-(5-(Amino(3-methoxyphenyl)methyl)-3-methylbenzo[b]thiophen-2-yl)pyrimidin-2-amine]
[1]
  IC50: < 5 µM
[2]
  IC50: < 5 µM

## Cc1c(-c2ccnc(N)n2)sc2ccc(CN)cc12 [Example 33, 4-(5-(Aminomethyl)-3-methylbenzo[b]thiophen-2-yl)pyrimidin-2-amine]
[1]
  IC50: < 5 µM
[2]
  IC50: < 5 µM

## Cc1c(-c2ccnc(N)n2)sc2ccc(CNC(=O)c3cccs3)cc12 [Example 34, N-((2-(2-Aminopyrimidin-4-yl)-3-methylbenzo[b]thiophen-5-yl)methyl)thiophene-2-carboxamide]
[1]
  IC50: < 5 µM
[2]
  IC50: < 5 µM

## Cc1c(-c2ccnc(N)n2)sc2ccc(CNC(=O)Cc3ccccc3O)cc12 [Example 35, N-((2-(2-Aminopyrimidin-4-yl)-3-methylbenzo[b]thiophen-5-yl)methyl)-2-(2-hydroxyphenyl)acetamide]
[1]
  IC50: < 5 µM
[2]
  IC50: < 5 µM

## COc1ccc(OC)c(C(=O)NCc2ccc3sc(-c4ccnc(N)n4)c(C)c3c2)c1 [Example 36, N-((2-(2-Aminopyrimidin-4-yl)-3-methylbenzo[b]thiophen-5-yl)methyl)-2,5-dimethoxybenzamide]
[1]
  IC50: < 5 µM
[2]
  IC50: < 5 µM

## COc1ccccc1Cc1ccc2sc(-c3ccnc(N)n3)c(C)c2c1 [Example 37, 4-(5-(2-Methoxybenzyl)-3-methylbenzo[b]thiophen-2-yl)pyrimidin-2-amine]
[1]
  IC50: > 5 µM
[2]
  IC50: > 5 µM

## COc1ccc(OC)c(Cc2ccc3sc(-c4ccnc(N)n4)c(C)c3c2)c1 [Example 38, 4-(5-(2,5-Dimethoxybenzyl)-3-methylbenzo[b]thiophen-2-yl)pyrimidin-2-amine]
[1]
  IC50: > 5 µM
[2]
  IC50: > 5 µM

## Cc1c(-c2ccnc(N)n2)sc2ccc(Cc3cccc(C(F)(F)F)c3)cc12 [Example 39, 4-(3-Methyl-5-(3-(trifluoromethyl)benzyl)benzo[b]thiophen-2-yl)pyrimidin-2-amine]
[1]
  IC50: > 5 µM
[2]
  IC50: > 5 µM

## Cc1c(-c2ccnc(N)n2)sc2ccc(Cc3cccc(C#N)c3)cc12 [Example 40, 3-((2-(2-Aminopyrimidin-4-yl)-3-methylbenzo[b]thiophen-5-yl)methyl)benzonitrile]
[1]
  IC50: < 5 µM
[2]
  IC50: < 5 µM

## Cc1c(-c2ccnc(N)n2)sc2ccc(Cc3cccc(C(=O)O)c3)cc12 [Example 41, 3-((2-(2-Aminopyrimidin-4-yl)-3-methylbenzo[b]thiophen-5-yl)methyl)benzoic acid]
[1]
  IC50: < 5 µM
[2]
  IC50: < 5 µM

## COC(=O)c1cccc(Cc2ccc3sc(-c4ccnc(N)n4)c(C)c3c2)c1 [Example 42, Methyl 3-((2-(2-aminopyrimidin-4-yl)-3-methylbenzo[b]thiophen-5-yl)methyl)benzoate]
[1]
  IC50: > 5 µM
[2]
  IC50: < 5 µM

## Cc1c(-c2ccnc(N)n2)sc2ccc(Cc3cccc(C(=O)OC(C)C)c3)cc12 [Example 43, Isopropyl 3-((2-(2-aminopyrimidin-4-yl)-3-methylbenzo[b]thiophen-5-yl)methyl)benzoate]
[1]
  IC50: < 5 µM
[2]
  IC50: < 5 µM

## Cc1c(-c2ccnc(N)n2)sc2ccc(Cc3cccc(C(=O)Nc4ccc(OCCN5CCCCC5)cc4)c3)cc12 [Example 44, 3-((2-(2-Aminopyrimidin-4-yl)-3-methylbenzo[b]thiophen-5-yl)methyl)-N-(4-(2-(piperidin-1-yl)ethoxy)phenyl)benzamide]
[1]
  IC50: < 5 µM
[2]
  IC50: < 5 µM

## Cc1c(-c2ccnc(N)n2)sc2ccc(Cc3cccc(C(=O)Nc4ccc(N5CCOCC5)cc4)c3)cc12 [Example 45, 3-((2-(2-Aminopyrimidin-4-yl)-3-methylbenzo[b]thiophen-5-yl)methyl)-N-(4-morpholinophenyl)benzamide]
[1]
  IC50: < 5 µM
[2]
  IC50: < 5 µM

## COc1ccc(NC(=O)c2cccc(Cc3ccc4sc(-c5ccnc(N)n5)c(C)c4c3)c2)cc1 [Example 46, 3-((2-(2-Aminopyrimidin-4-yl)-3-methylbenzo[b]thiophen-5-yl)methyl)-N-(4-methoxyphenyl)benzamide]
[1]
  IC50: < 5 µM
[2]
  IC50: < 5 µM

## CCN(CC)CCNC(=O)c1cccc(Cc2ccc3sc(-c4ccnc(N)n4)c(C)c3c2)c1 [Example 47, 3-((2-(2-Aminopyrimidin-4-yl)-3-methylbenzo[b]thiophen-5-yl)methyl)-N-(2-(diethylamino)ethyl)benzamide]
[1]
  IC50: < 5 µM
[2]
  IC50: < 5 µM

## Cc1c(-c2ccnc(N)n2)sc2ccc(Cc3cccc(C(=O)NCCN4CCOCC4)c3)cc12 [Example 48, 3-((2-(2-Aminopyrimidin-4-yl)-3-methylbenzo[b]thiophen-5-yl)methyl)-N-(3-morpholinoethyl)benzamide]
[1]
  IC50: < 5 µM
[2]
  IC50: < 5 µM

## Cc1c(-c2ccnc(N)n2)sc2ccc(Cc3cccc(C(=O)NCCCN4CCOCC4)c3)cc12 [Example 49, 3-((2-(2-Aminopyrimidin-4-yl)-3-methylbenzo[b]thiophen-5-yl)methyl)-N-(3-morpholinopropyl)benzamide]
[1]
  IC50: < 5 µM
[2]
  IC50: < 5 µM
